Laboratory results from patent publication US6756504B2, “Sphingolipids” (Yissum Research Development Company of the Hebrew …, priority 2000, dated 2004).

Assays:
[1] = tested on: HL60 cells; experiment: HL60 total protein content (Bradford); type: cell-based, Human; conditions: HL60, two days
Procedure: HL60: Human leukemia cell line (ATCC CCL-240).
The effect of the AD-2646 compound on cell viability was further supported when the total protein content was quantified. HL60 cells were incubated as described above, with different concentrations of AD-2646. After 2 days the cells were collected, washed twice with saline, dispersed and following a short pulsing with a probe-sonicator their protein content was quantified by the Bradford procedure. Similarly to the viable cell counting results, the protein measurements indicated an IC50 value of 5 μM.
To analyze whether the AD-2646 compound may mediate its effect on cell viability and on total protein content, in cooperation with other compounds, the cooperative effect of this compound and Taxol was next evaluated. HL60 cells were incubated for two days with 4 μM AD2646 in the presence or absence of 2 ng Taxol.
The effect of different compounds of the invention on cell viability was next evaluated by measuring total cell protein quantity. Different cell lines were incubated for two days in the presence of increasing concentrations of the different compounds of the present invention.

[2] = literature (Wieder et al. 1998); cited from earlier work
[3] = tested on: Bod3-GC (glucosylceramide) synthesis in HL60 cells; experiment: Sphingolipid metabolism from Bodipy-C3-ceramide: Bod3-GC in HL60; type: cell-based, Human; conditions: FIG. 6; for reduction of the level of Bod3-GC (fluorescent image): HL60, 10 μM
Procedure: (§1) In order to examine the effect of the different compounds on sphingolipids metabolism, different cell lines were incubated with increasing concentrations of different compounds of the invention in the presence of 2.5 μM Bodipy-C3-ceramide that was added to the culture medium as a solution in dimethylsulfoxide (not exceeding 0.1% DMSO of the final volium). After 3 hours, cells and medium were collected and centrifuged. Cells were next extracted with chloroform-methanol containing 2% acetic acid 1:1 (by volume) and the medium was shaken with an equal volume of chloroform-methanol, 1:1 (by volume). The phases were separated by centrifugation and the lower chloroform phase was collected. The solvents were evaporated and applied to thin layer chromatography silica gel plates (Whatman 4865-821) with a concentrating zone.
(§2) Plates were developed as follows: For medium: in chloroform-methanol-H2O, 75:25:4 by volume. For cells: plates were first developed with chloroform-methanol, 9:1, then dried and re-run in chloroform-methanol: H2O, 65:35:4.
(§3) Standards of Bodipy-C3-ceramide: Bodipy-C3-glucosylceramide (Bod3-GC) and Bodipy C3 sphingomyelin (Bod3-SPM) were used as markers. The fluorescence of the respective Bod3-SPM and Bod3-GC spots was quantified using a Fuji FLA-2000 scanner.

[4] = tested on: Bod3-SPM (sphingomyelin) synthesis in HL60 cells; experiment: Sphingolipid metabolism from Bodipy-C3-ceramide: Bod3-SPM in HL60; type: cell-based, Human; conditions: for IC50: HL60, 3 hours, 2.5 μM Bodipy-C3-ceramide, read-out: od 3-SPM (IC50 for reduction of Bod3-SPM, cell+medium); for inhibition of Bod3-SPM (fluorescent image): HL60, 10 μM
Procedure: as §1, §2, §3

SMILES | IC50 [4] [µM] | reduction of the level of Bod3-GC (fluorescent image) [3] | inhibition of Bod3-SPM (fluorescent image) ([4]; FIG. 6) | also measured
CC(=O)O[C@H]1C(=O)[C@@]2(C)[C@H]([C@H](OC(=O)c3ccccc3)[C@]3(O)C[C@H](OC(=O)[C@H](O)[C@@H](NC(=O)c4ccccc4)c4ccccc4)C(C)=C1C3(C)C)[C@]1(OC(C)=O)CO[C@@H]1C[C@@H]2O [Taxol, reference compound] | – | – | – | Protein content ([1]; 2 ng Taxol alone): 206 µg
CCCCCCCCCCCCCCCCOP(=O)([O-])OCC[N+](C)(C)C [HePC, hexadecylphosphocholine] | – | – | – | concentration shown to induce apoptosis [2]: 25 µM
CC(C)(C)OC(=O)NCCCCCCCCCCCC(=O)Nc1ccc([C@H](O)[C@@H](CO)NC(=O)OC(C)(C)C)cc1 [AD-2620, (2R,3S)-2-BOC-amino-1-[4-N-(dodecanoyl-12-N-BOC amine)-phenyl)-1,3-propanediol] | – | – | – | IC50 ([1]; read-out: C50 (cell viability, total cell protein)): 3 µM
CCCCCCCCCCCC(=O)Nc1ccc([C@H](O)[C@@H](N)CO)cc1 [AD-2674] | – | much stronger reduction | low inhibition | –

The next lines start with results.

IC50 [4] [µM] | SMILES | reduction of the level of Bod3-GC (fluorescent image) [3] | inhibition of Bod3-SPM (fluorescent image) ([4]; FIG. 6) | also measured
4 | CCCCCCCCCCCCCCN[C@H](CO)[C@H](O)c1ccc(N)cc1 [AD-2672, (2R,3R)-2-(N-tetradecylamine)-1-(4-aminophenyl)-1,3-propanediol] | – | – | effect on level of Bod3-GC (fluorescent image) ([3]; HL60, 5 and 10 μM): not; effect on level of Bod3-SPM (fluorescent image) ([4]; HL60, 5 and 10 μM, FIG. 6): strongly reduces
6 | CCCCCCCCCCCC(=O)Nc1ccc([C@@H](O)[C@H](N)CO)cc1 [AD-2673, (2R,3R)-2 amino-1-(N-dodecanoylaminophenyl)-1,3-propanediol] | much stronger reduction | low inhibition | –
